1 substance from patent publication US20220395465A1, “STING AGONIST COMPRISING EXOSOMES COMBINED WITH IL-12 DISPLAYING EXOSOMES FOR TREATING A TUMOUR” (CODIAK BIOSCIENCES, INC., priority 2019, published 2022) can be followed below.

The test system of the assay is MC38 tumor. Put plainly: MC38 mouse tumor model, tumor growth, complete responses and rechallenge. The format is in vivo, mice. The note with it: equivalent IL-12 dose. As for the experimental part:
Potency was assessed in vitro using human PBMCs or murine splenocytes and in vivo using mouse subcutaneous tumor models. Local versus systemic pharmacology was determined with intratumoral injection in mice and subcutaneous injection in monkeys. All studies were benchmarked against recombinant IL-12 (rIL-12).
In addition, exoIL-12 administration led to enhanced intratumoral IFN-gamma AUC by about 4-fold as compared to recombinant IL-12 (FIG. 7B). […] This correlated with dose-dependent increases in tumor antigen-specific CD8+ T cells, which increased nearly 4-fold in exoIL-12 treated mice (FIG. 7E).
Suppression of tumor growth was again observed following MC38 rechallenge (FIG. 7D).

For the substance “rIL-12: recombinant IL-12, benchmark in all studies”, the “complete responses (share of mice)” value is on record as 0%.
